The values below come from patent US20260116921A1, “PEPTIDE INHIBITORS OF INTERLEUKIN-23 RECEPTOR AND THEIR USE TO TREAT INFLAMMATORY DISEASES” (priority 2018, published 2026).

Bridge positions count the residues as written; N and C are the ends. Square brackets hold non-standard residues; d marks the D form. Peptide text beside a SMILES is read from it. Trp(7-Me) = Cc1cccc2c(C[C@H](N)C(=O)O)c[nH]c12; 2Nal = N[C@@H](Cc1ccc2ccccc2c1)C(=O)O; AEF = NCCOc1ccc(C[C@H](N)C(=O)O)cc1; Cit = NC(=O)NCCC[C@H](N)C(=O)O; Pen = CC(C)(S)[C@H](N)C(=O)O; αMeK = C[C@](N)(CCCCN)C(=O)O

In data set [1] the target is T1, IL-23R (Homo sapiens, UniProt Q5VWK5).
T1 sequence (Q5VWK5 24-629): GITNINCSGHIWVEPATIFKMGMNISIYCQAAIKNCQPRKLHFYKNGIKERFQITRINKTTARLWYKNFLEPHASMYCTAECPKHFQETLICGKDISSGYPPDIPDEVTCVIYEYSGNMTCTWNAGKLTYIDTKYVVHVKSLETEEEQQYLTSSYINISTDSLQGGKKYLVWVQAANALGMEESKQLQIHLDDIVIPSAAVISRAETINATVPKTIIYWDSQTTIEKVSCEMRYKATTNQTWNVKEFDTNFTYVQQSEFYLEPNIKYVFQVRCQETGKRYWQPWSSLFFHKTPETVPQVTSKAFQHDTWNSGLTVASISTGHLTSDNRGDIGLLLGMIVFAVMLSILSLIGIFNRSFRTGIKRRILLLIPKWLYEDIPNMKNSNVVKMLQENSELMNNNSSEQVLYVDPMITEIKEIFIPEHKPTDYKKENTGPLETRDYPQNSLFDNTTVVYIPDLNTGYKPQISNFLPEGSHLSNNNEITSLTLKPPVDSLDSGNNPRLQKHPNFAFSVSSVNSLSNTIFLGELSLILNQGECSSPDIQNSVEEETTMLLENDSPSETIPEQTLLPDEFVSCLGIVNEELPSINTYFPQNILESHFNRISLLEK
Put plainly: DB cells IL23R pSTAT3 cell assay (pStat3 HTRF). Format: cell-based. The settings on record: Table E3; DB cells, IL-23 0.5 nM, 30 minutes at 37° C.; read-out: pStat3 HTRF (IC50). The gist of the method:
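DB cells (5×10E5/well, RPMI-1640 + 10% FBS) stimulated with 0.5 nM final IL-23 plus serially diluted test peptides for 30 min at 37 °C, 5% CO2. Phospho-STAT3 (Tyr705) in lysates measured by HTRF using a two-plate protocol.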
A general note: TR-FRET usually uses a lanthanide donor and a delayed reading to cut background.

Data set [2] in a line: in vitro. The settings on record: cynomolgus monkey, 20% fecal homogenate (supernatant), anaerobic, pH 6.8.
Data set [3] is described as follows: in vitro. Conditions: human, 20% fecal homogenate (supernatant), anaerobic, pH 6.8.
Data set [4] can be described thus: in vitro. The settings on record: both, SD, rat, plasma (EDTA).
Data set [5] is described as follows: in vitro. Format: in vitro ADME. Details: half-life: dose or concentration left out as unconfirmed. Conditions: simulated intestinal fluid (SIF) with pancreatin, pH 6.8, 37° C., § matrix is 100 fold dilution of standard SIF concentration, read-out: SIF t½ (converted).

On to `CC(=O)NCCCC[C@H](NC(=O)[C@](C)(CCCCN)NC(=O)[C@H](Cc1ccc2ccccc2c1)NC(=O)[C@H](Cc1ccc(OCCN)cc1)NC(=O)[C@H]1NC(=O)[C@H](CCCNC(N)=O)NC(=O)[C@H](Cc2c[nH]c3c(C)cccc23)NC(=O)[C@H]([C@@H](C)O)NC(=O)[C@H](CC(N)=O)NC(=O)[C@@H](NC(C)=O)C(C)(C)SSC1(C)C)C(=O)N[C@@H](CC(N)=O)C(=O)N[C@H](Cc1ccc(O)cc1)C(N)=O` [compound 259] (Ac-[Pen]NT[Trp(7-Me)][Cit][Pen][AEF][2Nal][αMeK]K(Ac)N[dY]-NH2; disulfide 1-6), for which the IC50 in data set [1] is under 1 nM. Besides, the half-life at 20 μM is 16 h in data set [2], over 24 h in data set [3] and over 24 h in data set [4]. The half-life in data set [5] was 12 h.
With `CC[C@H](C)[C@H](NC(=O)[C@H](CC(N)=O)NC(=O)[C@H](CCCCNC(C)=O)NC(=O)[C@](C)(CCCCN)NC(=O)[C@H](Cc1ccc2ccccc2c1)NC(=O)[C@H](Cc1ccc(OCCN)cc1)NC(=O)[C@H]1NC(=O)[C@H](CCCCNC(C)=O)NC(=O)[C@H](Cc2c[nH]c3c(C)cccc23)NC(=O)[C@H]([C@@H](C)O)NC(=O)[C@H](CC(N)=O)NC(=O)[C@@H](NC(C)=O)C(C)(C)SSC1(C)C)C(N)=O` [compound 255], in data set [1], the IC50 fell in the range of 1 to 10 nM. The half-life at 20 μM was 15 h in data set [2], over 24 h in data set [3] and over 24 h in data set [4]. The half-life in data set [5] is 19 h.
Turning to `CC(=O)NCCCC[C@@H]1NC(=O)[C@H](Cc2c[nH]c3c(C)cccc23)NC(=O)[C@H]([C@@H](C)O)NC(=O)[C@H](CC(N)=O)NC(=O)[C@@H](NC(C)=O)C(C)(C)SSC(C)(C)[C@@H](C(=O)N[C@@H](Cc2ccc(OCCN)cc2)C(=O)N[C@@H](Cc2ccc3ccccc3c2)C(=O)N[C@@](C)(CCCCN)C(=O)N[C@@H](CCCCNC(C)=O)C(=O)N[C@@H](CC(N)=O)C(=O)N[C@@H](C(N)=O)C(C)C)NC1=O` [compound 251], the IC50 in data set [1] was under 1 nM. Moreover, the half-life at 20 μM in data set [2], in data set [3] and in data set [4] was over 24 h throughout. Also, the half-life in data set [5] was 22 h.
As to `CC(=O)NCCCC[C@H](NC(=O)C1(NC(=O)[C@H](Cc2ccc3ccccc3c2)NC(=O)[C@H](Cc2ccc(OCCN)cc2)NC(=O)[C@H]2NC(=O)[C@H](CCC(N)=O)NC(=O)[C@H](Cc3c[nH]c4c(C)cccc34)NC(=O)[C@H]([C@@H](C)O)NC(=O)[C@H](CC(N)=O)NC(=O)[C@@H](NC(C)=O)C(C)(C)SSC2(C)C)CCCCC1)C(=O)N[C@@H](CC(N)=O)C(=O)NCCC(N)=O` [compound 274], in data set [1], the concentration for half-maximal inhibition (IC50) is under 1 nM. Further, the figures for the half-life at 20 μM in data set [2], in data set [3] and in data set [4] were 4 h, over 24 h and 5 h, respectively. In addition, in data set [5], the half-life was 5 h.
Consider `CC(=O)NCCCC[C@@H]1NC(=O)[C@H](Cc2c[nH]c3c(C)cccc23)NC(=O)[C@H]([C@@H](C)O)NC(=O)[C@H](CC(N)=O)NC(=O)[C@@H](NC(C)=O)C(C)(C)SSC(C)(C)[C@@H](C(=O)N[C@@H](Cc2ccc(OCCN)cc2)C(=O)N[C@@H](Cc2ccc3ccccc3c2)C(=O)N[C@@](C)(CCCCN)C(=O)N[C@@H](CCCCNC(C)=O)C(=O)N[C@@H](CC(N)=O)C(=O)N[C@@H](Cc2c[nH]cn2)C(N)=O)NC1=O` [compound 248], for which the half-life at 20 μM in data set [2] was 6 h; in data set [3], over 24 h; in data set [4] it was over 24 h. For the same molecule, in data set [5], the half-life was 3 h.
`CC(=O)NCCCC[C@@H]1NC(=O)[C@H](Cc2c[nH]c3c(C)cccc23)NC(=O)[C@H]([C@@H](C)O)NC(=O)[C@H](CC(N)=O)NC(=O)[C@@H](NC(C)=O)C(C)(C)SSC(C)(C)[C@@H](C(=O)N[C@@H](Cc2ccc(OCCN)cc2)C(=O)N[C@@H](Cc2ccc3ccccc3c2)C(=O)N[C@@](C)(CCCCN)C(=O)N[C@@H](CCCCNC(C)=O)C(=O)N[C@@H](CC(N)=O)C(=O)N2CCC[C@@H]2C(N)=O)NC1=O` [compound 254]: the IC50 in data set [1] lay in the range of 1 to 10 nM. The half-life at 20 μM is over 24 h in data set [2], over 24 h in data set [3] and 12 h in data set [4]. The half-life in data set [5] is 16 h.
For `CC(=O)NCCCC[C@H](NC(=O)[C@](C)(CCCCN)NC(=O)[C@H](Cc1ccc2ccccc2c1)NC(=O)[C@H](Cc1ccc(OCCN)cc1)NC(=O)[C@H]1NC(=O)[C@H](CCCNC(N)=O)NC(=O)[C@H](Cc2c[nH]c3c(C)cccc23)NC(=O)[C@H]([C@@H](C)O)NC(=O)[C@H](CC(N)=O)NC(=O)[C@@H](NC(C)=O)C(C)(C)SSC1(C)C)C(=O)N[C@@H](CC(N)=O)C(=O)N[C@H](Cc1ccccc1)C(N)=O` [compound 257] (Ac-[Pen]NT[Trp(7-Me)][Cit][Pen][AEF][2Nal][αMeK]K(Ac)N[dF]-NH2; disulfide 1-6), in data set [1], the IC50 was in the range of 1 to 10 nM. Moreover, the half-life at 20 μM in data set [2] is 23 h; in data set [3], over 24 h; in data set [4], over 24 h. Besides, the half-life in data set [5] was 5 h.
As to `CCC(CC)(NC(=O)[C@H](Cc1ccc2ccccc2c1)NC(=O)[C@H](Cc1ccc(OCCN)cc1)NC(=O)[C@H]1NC(=O)[C@H](CCC(N)=O)NC(=O)[C@H](Cc2c[nH]c3c(C)cccc23)NC(=O)[C@H]([C@@H](C)O)NC(=O)[C@H](CC(N)=O)NC(=O)[C@@H](NC(C)=O)C(C)(C)SSC1(C)C)C(=O)N[C@@H](CCCCNC(C)=O)C(=O)N[C@@H](CC(N)=O)C(=O)NCCC(N)=O` [compound 276], the IC50 in data set [1] was under 1 nM. Further, the half-life at 20 μM in data set [2] was 13 h; in data set [3], over 24 h; in data set [4], 5 h. Besides, in data set [5], the half-life is 13 h.
In the case of `CC(=O)NCCCC[C@H](NC(=O)[C@](C)(CCCCN)NC(=O)[C@H](Cc1ccc2ccccc2c1)NC(=O)[C@H](Cc1ccc(OCCN)cc1)NC(=O)[C@H]1NC(=O)[C@H](CCCNC(N)=O)NC(=O)[C@H](Cc2c[nH]c3c(C)cccc23)NC(=O)[C@H]([C@@H](C)O)NC(=O)[C@H](CC(N)=O)NC(=O)[C@@H](NC(C)=O)C(C)(C)SSC1(C)C)C(=O)N[C@@H](CC(N)=O)C(=O)N[C@H](CO)C(N)=O` [compound 261] (Ac-[Pen]NT[Trp(7-Me)][Cit][Pen][AEF][2Nal][αMeK]K(Ac)N[dS]-NH2; disulfide 1-6), in data set [1], the IC50 was under 1 nM. For the same molecule, the half-life at 20 μM in data set [2] was 4 h; in data set [3], over 24 h; in data set [4] it was over 24 h. For the same molecule, the half-life in data set [5] was 18 h.
With `CC(=O)NCCCC[C@@H]1NC(=O)[C@H](Cc2c[nH]c3c(C)cccc23)NC(=O)[C@H]([C@@H](C)O)NC(=O)[C@H](CC(N)=O)NC(=O)[C@@H](NC(C)=O)C(C)(C)SSC(C)(C)[C@@H](C(=O)N[C@@H](Cc2ccc(OCCN)cc2)C(=O)N[C@@H](Cc2ccc3ccccc3c2)C(=O)N[C@@](C)(CCCCN)C(=O)N[C@@H](CCCCNC(C)=O)C(=O)N[C@@H](CC(N)=O)C(=O)N[C@H](C(N)=O)C(C)C)NC1=O` [compound 250], in data set [1], the IC50 lay in the range of 1 to 10 nM. Also, the half-life at 20 μM was 12 h in data set [2], over 24 h in data set [3] and over 24 h in data set [4]. In addition, the half-life in data set [5] was 17 h.
On to `CC(=O)NCCCC[C@@H]1NC(=O)[C@H](Cc2c[nH]c3c(C)cccc23)NC(=O)[C@H]([C@@H](C)O)NC(=O)[C@H](CC(N)=O)NC(=O)[C@@H](NC(C)=O)C(C)(C)SSC(C)(C)[C@@H](C(=O)N[C@@H](Cc2ccc(OCCN)cc2)C(=O)N[C@@H](Cc2ccc3ccccc3c2)C(=O)N[C@@](C)(CCCCN)C(=O)N[C@@H](CCCCNC(C)=O)C(=O)N[C@@H](CC(N)=O)C(=O)N2CCC[C@H]2C(N)=O)NC1=O` [compound 253], for which the IC50 in data set [1] was 1 to 10 nM. Besides, the half-life at 20 μM in data set [2] is 3 h; in data set [3], 1 h; in data set [4], over 24 h. In addition, in data set [5], the half-life is 11 h.
For `CC(=O)NCCCC[C@@H]1NC(=O)[C@H](Cc2c[nH]c3c(C)cccc23)NC(=O)[C@H]([C@@H](C)O)NC(=O)[C@H](CC(N)=O)NC(=O)[C@@H](NC(C)=O)C(C)(C)SSC(C)(C)[C@@H](C(=O)N[C@@H](Cc2c[nH]cn2)C(=O)N[C@@H](Cc2ccc3ccccc3c2)C(=O)N[C@@](C)(CCCCN)C(=O)N[C@@H](CCCCNC(C)=O)C(=O)N[C@@H](CC(N)=O)C(=O)N[C@H](CC(C)C)C(N)=O)NC1=O` [compound 290] (Ac-[Pen]NT[Trp(7-Me)]K(Ac)[Pen]H[2Nal][αMeK]K(Ac)N[dL]-NH2; disulfide 1-6), in that order: 1 to 10 nM, over 24 h, over 24 h, over 24 h and 16 h.

A word on the IC50: it is the concentration that inhibits the measured activity by half.
